Results: patent US20190338294A1, “ORTHOGONAL TRANSCRIPTIONAL SWITCHES DERIVED FROM TET REPRESSOR HOMOLOGS FOR SACCHAROMYCES CEREVISIAE” (The Johns Hopkins University, priority 2016, published 2019)
Read-outs that look alike come from different tables or passages of the source.

How the values were obtained:
[1] = tested on: lmrTAv2 (=NLS-lmrA-VP16); assay: Lmr-Offv2 switch candidate, GFP reporter (strain lmr/yxaG-lmrTAv2); assay type: cell-based, Bacillus subtilis; conditions: Quercetin 0.13 μM, Fisetin 0.19 μM, Coumesterol 0.22 μM, On w/o drug
[2] = tested on: BY4741; assay: Effects of DAPG on plating efficiency of BY4741; assay type: cell-based, Saccharomyces cerevisiae; conditions: 2 days
Description: FIG. 2 is a bar graph showing the effects of DAPG on plating efficiency of BY4741. Yeast strain BY4741 overnight culture in SC medium was diluted 25,000-fold, and 100 μl was spread on SC, and SC containing 24-μM or 48 μM of DAPG. The number of colonies formed was counted after 2 days. The values were means and standard deviations calculated from three experiments.

[3] = tested on: camTA (=camR-VP16-NLS); assay: Camphor-Off switch, GFP reporter, orthogonality test; assay type: cell-based, Pseudomonas putida; conditions: SC with 25-μM doxycycline, 25-μM D-camphor, 48-μM DAPG or 150-μM p-cumate
[4] = tested on: BY4741; conditions: cited from earlier work
[5] = molecular target: T1, cymTA(=NLS-cymR-VP16) (Pseudomonas putida, UniProt O33453); assay: Cumate-Off switch, GFP reporter (strain cymG-TA); assay type: cell-based; conditions: SC with 25-μM doxycycline, 25-μM D-camphor, 48-μM DAPG or 150-μM p-cumate
T1 construct: (cymTA in pSIB470); expressed in transfected cells; host or cells: Saccharomyces cerevisiae BY4741, integrated pSIB470 (strain cymG-TA)
T1 sequence (O33453 other isoform, or with tags, fused parts or gaps): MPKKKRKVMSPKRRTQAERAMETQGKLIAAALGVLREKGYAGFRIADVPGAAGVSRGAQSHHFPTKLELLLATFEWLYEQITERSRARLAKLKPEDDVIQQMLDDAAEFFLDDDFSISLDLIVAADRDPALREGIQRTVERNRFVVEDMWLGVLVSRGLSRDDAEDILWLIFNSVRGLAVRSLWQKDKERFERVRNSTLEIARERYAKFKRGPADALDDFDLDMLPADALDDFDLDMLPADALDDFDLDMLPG

[6] = tested on: phlTA (=phlF-VP16); assay: DAPG-Off switch, GFP reporter, flow cytometry (strain DapG-TA); assay type: cell-based, Pseudomonas; conditions: for GFP fluorescence of DapG-TA: compared with BY4741 (background); for intensity of reporter GFP fluorescence, DAPG-Off switch: SC with 25-μM doxycycline, 25-μM D-camphor, 48-μM DAPG or 150-μM p-cumate
[7] = molecular target: T2, tTA (=tetR-VP16) (Escherichia coli, UniProt P04483); assay: Tet-Off switch, GFP reporter, orthogonality test; assay type: cell-based; conditions: SC with 25-μM doxycycline, 25-μM D-camphor, 48-μM DAPG or 150-μM p-cumate
T2 construct: expressed in transfected cells; host or cells: Saccharomyces cerevisiae BY4742, integrated pSIB527 (strain TetOffG)

[8] = tested on: NLS-PhlF; assay: DAPG-On system with ADE2 reporter, spot growth on SC-Ade (strains AphOx-2μPhlF); conditions: 5 μM DAPG; hardly grew on DAPG-free SC-Ade
Description: Cells were cultured for 1 day at 30° C. in SC-Leu-His (FIG. 6A), SC-Leu-His-Ade (FIG. 6B), SC-Leu-His with 24-μM DAPG (FIG. 6C), and SC-Leu-His-Ade with 24-μM DAPG (FIG. 6D). The cells were diluted 10-fold stepwise across each row.
The performance of the DAPG-On system was assessed using ADE2 as a reporter in the ade2Δ BY11204 strain.

[9] = tested on: phlTA (=phlF-VP16); assay: DAPG-Off system with ADE2 reporter, spot growth on SC-Ade (strain phlA-TA); conditions: 24 μM DAPG, 2 days at 30° C.
Description: FIG. 3A-FIG. 3D is a series of photographs showing the evaluation of the DAPG-Off system using the ADE2 gene (CDS) as a reporter. Cells were cultured for 2 days at 30° C. in SC (FIG. 3A), SC-Ade (FIG. 3B), SC with 24 μM of DAPG (FIG. 3C), and SC-Ade with 24-DAPG (FIG. 3D). Cells were diluted 10-fold stepwise across each row.
A second reporter gene was used to further assess the performance of the DAPG-Off switch. Here, it was examined whether the ADE2 gene under the control of phlPr complements the adenine-auxotrophy of strain BY11204 in a DAPG-dependent manner (FIG. 3A-FIG. 3D).

[10] = tested on: varTA (=varR-VP16); assay: Var-Off switch candidate, GFP reporter (strain varG-TA); assay type: cell-based, Streptomyces virginae; conditions: Virginiamycin S1 2 mM, On w/o drug
[11] = tested on: ethTA(=NLS-ethR-VP16); assay type: cell-based, Mycobacterium tuberculosis; conditions: 2-Benzyl acetate 0.01%, On w/o drug
[12] = tested on: icaTA (=icaR-VP16); assay: IcaR-Off switch candidate, GFP reporter (strain icaG-TA); assay type: cell-based, Staphylococcus epidermidis; conditions: Gentamicin 10 mM, On w/o drug

Molecule: O=c1c(O)c(-c2ccc(O)c(O)c2)oc2cc(O)ccc12 [Fisetin]
- Expression of GFP with drug [1]: On

Molecule: CC(=O)c1c(O)cc(O)c(C(C)=O)c1O [DAPG, 2,4-diacetylphloroglucinol]
- number of colonies formed ([2]; SC with 24-μM (5-μg/ml) DAPG vs SC without DAPG): little difference
- number of colonies formed ([2]; SC with 48-μM (10-μg/ml) DAPG vs SC without DAPG): little difference
- intensity of reporter GFP fluorescence, Camphor-Off switch [3]: lowered GFP fluorescence
- growth of BY4741 ([4]; 10-μg/ml DAPG (Kwak et al., 2011)): did not inhibit growth
- growth of cells of BY4741 background ([4]; higher concentrations than 10-μg/ml DAPG (Troppens et al., 2013)): did show sensitivity
- intensity of reporter GFP fluorescence, Cumate-Off switch [5]: strong GFP signal
- culture time over which GFP fluorescence reduced to background levels ([6]; 48 μM DAPG, strain DapG-TA): 14 h
- GFP fluorescence of DapG-TA ([6]; 12-μM DAPG in SC): higher than that of the BY4741 control strain
- GFP fluorescence of DapG-TA ([6]; 48-μM DAPG in SC): decreased to the same level as BY4741
- intensity of reporter GFP fluorescence, DAPG-Off switch [6]: decreased to the background level
- intensity of reporter GFP fluorescence, Tet-Off switch [7]: lowered GFP fluorescence
- growth of strains AphOx-2μPhlF on SC-Ade medium [8]: vigorous growth
- growth of phlA-TA strain on SC-Ade medium [9]: did not grow

Molecule: CC[C@H]1NC(=O)[C@@H](NC(=O)c2ncccc2O)[C@@H](C)OC(=O)[C@H](c2ccccc2)NC(=O)[C@@H]2CC(=O)CCN2C(=O)[C@H](Cc2ccccc2)N(C)C(=O)[C@@H]2CCCN2C1=O [Virginiamycin S1]
- Expression of GFP with drug [10]: On
- Expression of GFP with drug ([10]; listed as virginiamycin S): strong GFP expression

Molecule: O=c1c(O)c(-c2ccc(O)c(O)c2)oc2cc(O)cc(O)c12 [Quercetin]
- Expression of GFP with drug [1]: On
- Expression of GFP with drug ([1]; listed as quercetin): not ligand (quercetin)-responsive

Molecule: D-camphor
- intensity of reporter GFP fluorescence, Camphor-Off switch [3]: decreased to the background level
- intensity of reporter GFP fluorescence, Cumate-Off switch [5]: strong GFP signal
- intensity of reporter GFP fluorescence, DAPG-Off switch [6]: strong GFP signal
- intensity of reporter GFP fluorescence, Tet-Off switch [7]: strong GFP signal

Molecule: CC(=O)OCc1ccccc1 [2-Benzyl acetate]
- Expression of GFP with drug [11]: On
- Expression of GFP with drug ([11]; listed as 2-benzyl acetate): solid ligand-independent GFP fluorescence

Molecule: O=c1oc2cc(O)ccc2c2oc3cc(O)ccc3c12 [Coumesterol]
- Expression of GFP with drug [1]: On

Molecule: Gentamicin
- Expression of GFP with drug [12]: On
- Expression of GFP with drug ([12]; listed as gentamicin): solid ligand-independent GFP fluorescence
